Values quoted from earlier work, collected in patent US20210169840A1, “COMPOSITION AND METHOD OF AN IRON SUPPLEMENT” (priority 2019, published 2021).

Conditions: in vivo

absorption: ~70%
Substance: carbonyl iron
